Data taken from US20240270762A1, “PENICILLIN-BINDING PROTEIN INHIBITORS” (priority 2021, published 2024).
Values after ≈ are worked out from the molar mass of the structure shown.

How the values were obtained:
[1] = molecular target: T1, PBP3 from Pseudomonas aeruginosa (PAO1) (Pseudomonas aeruginosa, UniProt G3XD46); experiment: Bocillin-FL fluorescence polarization competition binding, P. aeruginosa PBP3; conditions: Binding affinity to P. aeruginosa PBP3; fluorescence polarization competition binding assay using Bocillin-FL; read-out: P. aeruginosa PBP3 Potency
T1 construct: made in house
T1 sequence (G3XD46 whole entry): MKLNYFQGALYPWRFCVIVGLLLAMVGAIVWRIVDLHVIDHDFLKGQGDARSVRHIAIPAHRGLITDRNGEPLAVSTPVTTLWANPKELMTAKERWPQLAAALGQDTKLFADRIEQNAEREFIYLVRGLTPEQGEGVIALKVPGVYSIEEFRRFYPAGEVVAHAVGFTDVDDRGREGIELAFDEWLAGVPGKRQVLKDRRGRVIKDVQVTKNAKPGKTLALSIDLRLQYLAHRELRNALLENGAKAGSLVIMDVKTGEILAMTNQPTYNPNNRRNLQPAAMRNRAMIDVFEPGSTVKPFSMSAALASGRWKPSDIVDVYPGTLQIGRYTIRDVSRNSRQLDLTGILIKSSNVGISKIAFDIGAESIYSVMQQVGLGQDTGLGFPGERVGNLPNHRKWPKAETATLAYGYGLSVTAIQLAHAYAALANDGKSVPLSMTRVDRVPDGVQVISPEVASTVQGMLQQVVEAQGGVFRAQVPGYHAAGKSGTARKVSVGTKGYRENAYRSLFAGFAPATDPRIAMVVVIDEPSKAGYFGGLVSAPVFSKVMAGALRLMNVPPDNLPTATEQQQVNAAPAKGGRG
Outline: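 Purified PBPs pre-incubated with inhibitor (E. coli PBP3 1.5 μM, 30 min; P. aeruginosa PBP3 0.75 μM, A. baumannii PBP1a 1 μM and PBP3 0.2 μM, 15 min), then Bocillin-FL 0.1 μM (0.05 μM for PBP1a) added; FP read up to 60 min. EC50 = concentration halving bound Bocillin-FL.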

[2] = molecular target: T2, A. baumannii PBP1a (Acinetobacter baumannii, UniProt A0ABX6CK30); experiment: Bocillin-FL competition binding via gel filtration, A. baumannii PBP1a; conditions: competition binding assay using Bocillin-FL via gel filtration; read-out: A. baumannii PBP1a Potency
T2 sequence (A0ABX6CK30 1-851): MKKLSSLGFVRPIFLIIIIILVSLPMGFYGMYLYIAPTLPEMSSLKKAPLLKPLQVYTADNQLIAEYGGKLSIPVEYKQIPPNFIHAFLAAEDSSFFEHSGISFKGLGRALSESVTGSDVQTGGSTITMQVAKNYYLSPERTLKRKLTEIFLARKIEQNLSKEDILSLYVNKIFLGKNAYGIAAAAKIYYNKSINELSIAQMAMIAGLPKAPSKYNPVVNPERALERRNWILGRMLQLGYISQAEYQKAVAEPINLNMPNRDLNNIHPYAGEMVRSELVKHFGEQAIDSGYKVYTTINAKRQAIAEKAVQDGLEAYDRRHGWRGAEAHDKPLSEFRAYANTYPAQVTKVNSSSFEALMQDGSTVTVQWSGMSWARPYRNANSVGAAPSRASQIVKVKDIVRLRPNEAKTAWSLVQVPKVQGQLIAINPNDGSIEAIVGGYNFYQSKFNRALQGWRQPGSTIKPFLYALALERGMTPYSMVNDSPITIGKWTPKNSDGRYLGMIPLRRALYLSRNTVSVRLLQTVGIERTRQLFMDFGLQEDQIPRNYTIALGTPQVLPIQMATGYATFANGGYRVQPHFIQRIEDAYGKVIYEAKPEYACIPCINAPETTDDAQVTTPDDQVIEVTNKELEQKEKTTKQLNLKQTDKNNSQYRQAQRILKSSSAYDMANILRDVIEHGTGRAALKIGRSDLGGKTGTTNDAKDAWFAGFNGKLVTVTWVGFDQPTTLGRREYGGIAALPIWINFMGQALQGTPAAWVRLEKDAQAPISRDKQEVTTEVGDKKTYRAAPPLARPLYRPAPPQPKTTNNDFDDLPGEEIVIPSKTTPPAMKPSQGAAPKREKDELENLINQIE
Outline: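 Enzyme was pre-incubated with rising inhibitor concentrations, then Bocillin-FL was added and incubated 15 minutes more. Bound probe was separated by gel filtration and fluorescence read. EC50 came from fitting fraction of PBP labelled versus inhibitor concentration to a Hill equation with ymin, ymax and n.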

[3] = tested on: P. aeruginosa CDC-0054; experiment: microbe, parasite or virus in culture; assay type: cell-based; conditions: Pseudomonas aeruginosa, CDC0054, read-out: Minimum inhibitory concentration, P. aeruginosa CDC-0054
[4] = tested on: A. baumannii CDC-0083; experiment: microbe, parasite or virus in culture; assay type: cell-based; conditions: Acinetobacter baumannii, CDC0083, read-out: MIC, A. baumannii CDC-0083
[5] = tested on: P. aeruginosa CDC-0110; experiment: microbe, parasite or virus in culture; assay type: cell-based; conditions: Pseudomonas aeruginosa, CDC0110, read-out: Minimum inhibitory concentration, P. aeruginosa CDC-0110

## Cc1cc(C(=O)NCCCN2CCN(C(=O)N[C@@H](C(=O)N[C@H]3Cc4ccc(F)c(C(=O)O)c4OB3O)c3cc(F)c(O)c(O)c3Cl)C(=O)C2=O)ccn1 [Example 298, (R)-3-((R)-2-(2-chloro-5-fluoro-3,4-dihydroxyphenyl)-2-(4-(3-(2-methylisonicotinamido)propyl)-2,3-dioxopiperazine-1-carboxamido)acetamido)-7-fluoro-2-hydroxy-3,4-dihydro-2H-benzo[e][1,2]oxaborinine-8-carboxylic acid]
[1]
  IC50: < 10 µM
[2]
  EC50: 10 to 50 µM
[3]
  MIC: < 1 µg/mL
[4]
  MIC: < 1 µg/mL
[5]
  MIC: < 1 µg/mL

## O=C(NCCCN1CCN(C(=O)N[C@@H](C(=O)N[C@H]2Cc3ccc(F)c(C(=O)O)c3OB2O)c2cc(F)c(O)c(O)c2Cl)C(=O)C1=O)c1ccnc(F)c1F [Example 300, (R)-3-((R)-2-(2-chloro-5-fluoro-3,4-dihydroxyphenyl)-2-(4-(3-(2,3-difluoroisonicotinamido)propyl)-2,3-dioxopiperazine-1-carboxamido)acetamido)-7-fluoro-2-hydroxy-3,4-dihydro-2H-benzo[e][1,2]oxaborinine-8-carboxylic acid]
[1]
  IC50: < 10 µM
[2]
  EC50: 10 to 50 µM
[3]
  MIC: < 1 µg/mL
[4]
  MIC: < 1 µg/mL
[5]
  MIC: < 1 µg/mL

## Cc1cc(C(=O)NCCCN2CCN(C(=O)NC(C(=O)N[C@H]3Cc4ccc(F)c(C(=O)O)c4OB3O)c3cc(F)c(O)c(O)c3Cl)C(=O)C2=O)c(F)cn1 (stereo partly drawn) [Example 301, (3R)-3-(2-(2-chloro-5-fluoro-3,4-dihydroxyphenyl)-2-(4-(3-(5-fluoro-2-methylisonicotinamido)propyl)-2,3-dioxopiperazine-1-carboxamido)acetamido)-7-fluoro-2-hydroxy-3,4-dihydro-2H-benzo[e][1,2]oxaborinine-8-carboxylic acid]
[1]
  IC50: < 10 µM
[2]
  EC50: 10 to 50 µM
[3]
  MIC: < 1 µg/mL
[4]
  MIC: < 1 µg/mL
[5]
  MIC: < 1 µg/mL

## O=C(NCCCN1CCN(C(=O)N[C@@H](C(=O)N[C@H]2Cc3ccc(F)c(C(=O)O)c3OB2O)c2cc(F)c(O)c(O)c2Cl)C(=O)C1=O)c1cccc(O)c1Cl [Example 303, (R)-3-((R)-2-(4-(3-(2-chloro-3-hydroxybenzamido)propyl)-2,3-dioxopiperazine-1-carboxamido)-2-(2-chloro-5-fluoro-3,4-dihydroxyphenyl)acetamido)-7-fluoro-2-hydroxy-3,4-dihydro-2H-benzo[e][1,2]oxaborinine-8-carboxylic acid]
[1]
  IC50: < 10 µM
[2]
  EC50: < 10 µM
[3]
  MIC: < 1 µg/mL
[4]
  MIC: < 1 µg/mL
[5]
  MIC: < 1 µg/mL

## O=C(NCCCN1CCN(C(=O)NC(C(=O)N[C@H]2Cc3ccc(F)c(C(=O)O)c3OB2O)c2cc(F)c(O)c(O)c2Cl)C(=O)C1=O)c1ccc(O)c(F)c1 (stereo partly drawn) [Example 304, (3R)-3-(2-(2-chloro-5-fluoro-3,4-dihydroxyphenyl)-2-(4-(3-(3-fluoro-4-hydroxybenzamido)propyl)-2,3-dioxopiperazine-1-carboxamido)acetamido)-7-fluoro-2-hydroxy-3,4-dihydro-2H-benzo[e][1,2]oxaborinine-8-carboxylic acid]
[1]
  IC50: < 10 µM
[2]
  EC50: < 10 µM
[3]
  MIC: 2 to 4 µg/mL (≈ 2.57 to 5.14 µM)
[4]
  MIC: < 1 µg/mL
[5]
  MIC: < 1 µg/mL

## O=C(NCCCN1CCN(C(=O)NC(C(=O)N[C@H]2Cc3ccc(F)c(C(=O)O)c3OB2O)c2cc(F)c(O)c(O)c2Cl)C(=O)C1=O)c1ccc(O)c(Cl)c1 (stereo partly drawn) [Example 305, (3R)-3-(2-(4-(3-(3-chloro-4-hydroxybenzamido)propyl)-2,3-dioxopiperazine-1-carboxamido)-2-(2-chloro-5-fluoro-3,4-dihydroxyphenyl)acetamido)-7-fluoro-2-hydroxy-3,4-dihydro-2H-benzo[e][1,2]oxaborinine-8-carboxylic acid]
[1]
  IC50: < 10 µM
[2]
  EC50: < 10 µM
[3]
  MIC: 2 to 4 µg/mL (≈ 2.52 to 5.04 µM)
[4]
  MIC: 2 to 4 µg/mL (≈ 2.52 to 5.04 µM)
[5]
  MIC: < 1 µg/mL

## O=C(NCCCN1CCN(C(=O)NC(C(=O)N[C@H]2Cc3ccc(F)c(C(=O)O)c3OB2O)c2cc(F)c(O)c(O)c2Cl)C(=O)C1=O)c1ccc(O)c(F)c1F (stereo partly drawn) [Example 306, (3R)-3-(2-(2-chloro-5-fluoro-3,4-dihydroxyphenyl)-2-(4-(3-(2,3-difluoro-4-hydroxybenzamido)propyl)-2,3-dioxopiperazine-1-carboxamido)acetamido)-7-fluoro-2-hydroxy-3,4-dihydro-2H-benzo[e][1,2]oxaborinine-8-carboxylic acid]
[1]
  IC50: < 10 µM
[2]
  EC50: < 10 µM
[3]
  MIC: 2 to 4 µg/mL (≈ 2.51 to 5.03 µM)
[4]
  MIC: 2 to 4 µg/mL (≈ 2.51 to 5.03 µM)
[5]
  MIC: < 1 µg/mL

## O=C(NCCCN1CCN(C(=O)NC(C(=O)N[C@H]2Cc3ccc(F)c(C(=O)O)c3OB2O)c2cc(F)c(O)c(O)c2Cl)C(=O)C1=O)c1ccc(O)cc1O (stereo partly drawn) [Example 307, (3R)-3-(2-(2-chloro-5-fluoro-3,4-dihydroxyphenyl)-2-(4-(3-(2,4-dihydroxybenzamido)propyl)-2,3-dioxopiperazine-1-carboxamido)acetamido)-7-fluoro-2-hydroxy-3,4-dihydro-2H-benzo[e][1,2]oxaborinine-8-carboxylic acid]
[1]
  IC50: < 10 µM
[2]
  EC50: < 10 µM
[3]
  MIC: 2 to 4 µg/mL (≈ 2.58 to 5.16 µM)
[4]
  MIC: < 1 µg/mL
[5]
  MIC: < 1 µg/mL

## O=C(O)c1c(F)ccc2c1OB(O)[C@@H](NC(=O)C(NC(=O)N1CCN(C3CCN(C(=O)c4c(F)ccc(O)c4F)CC3)C(=O)C1=O)c1cc(F)c(O)c(O)c1Cl)C2 (stereo partly drawn) [Example 308, (3R)-3-(2-(2-chloro-5-fluoro-3,4-dihydroxyphenyl)-2-(4-(1-(2,6-difluoro-3-hydroxybenzoyl)piperidin-4-yl)-2,3-dioxopiperazine-1-carboxamido)acetamido)-7-fluoro-2-hydroxy-3,4-dihydro-2H-benzo[e][1,2]oxaborinine-8-carboxylic acid]
[1]
  IC50: < 10 µM
[2]
  EC50: 10 to 50 µM
[3]
  MIC: < 1 µg/mL
[4]
  MIC: < 1 µg/mL
[5]
  MIC: < 1 µg/mL

## O=C(O)c1c(F)ccc2c1OB(O)[C@@H](NC(=O)C(NC(=O)N1CCN(C3CCN(C(=O)c4cc(O)cc(O)c4)CC3)C(=O)C1=O)c1cc(F)c(O)c(O)c1Cl)C2 (stereo partly drawn) [Example 309, (3R)-3-(2-(2-chloro-5-fluoro-3,4-dihydroxyphenyl)-2-(4-(1-(3,5-dihydroxybenzoyl)piperidin-4-yl)-2,3-dioxopiperazine-1-carboxamido)acetamido)-7-fluoro-2-hydroxy-3,4-dihydro-2H-benzo[e][1,2]oxaborinine-8-carboxylic acid]
[1]
  IC50: < 10 µM
[2]
  EC50: 10 to 50 µM
[3]
  MIC: < 1 µg/mL
[4]
  MIC: < 1 µg/mL
[5]
  MIC: < 1 µg/mL

## CN(CCCN1CCN(C(=O)NC(C(=O)N[C@H]2Cc3ccc(F)c(C(=O)O)c3OB2O)c2cc(F)c(O)c(O)c2Cl)C(=O)C1=O)C(=O)c1cccc(O)c1 (stereo partly drawn) [Example 310, (3R)-3-(2-(2-chloro-5-fluoro-3,4-dihydroxyphenyl)-2-(4-(3-(3-hydroxy-N-methylbenzamido)propyl)-2,3-dioxopiperazine-1-carboxamido)acetamido)-7-fluoro-2-hydroxy-3,4-dihydro-2H-benzo[e][1,2]oxaborinine-8-carboxylic acid]
[1]
  IC50: < 10 µM
[2]
  EC50: 50 to 250 µM
[3]
  MIC: < 1 µg/mL
[4]
  MIC: < 1 µg/mL
[5]
  MIC: < 1 µg/mL
